Measurements taken from US9066958B2 (priority 2006, dated 2015).
Where two headings read alike, the source gives them in different places.

Assays:
[1] = Stability of solvent with storage; format: physicochemical
[2] = Stability of vitamin D in vehicle; format: physicochemical; conditions: result in words; only cells marked # are direct experimental observation
Source text: The liquid has minimal sensory effects i.e. it has minimal smell, taste, or texture i.e. no oily feel. The liquid is biologically natural in the context of breast-feeding, and is safe for infant consumption. The liquid per se is not subject to rancidity or oxidation over the shelf-life of the composition. […] One drop of each liquid was applied onto a nipple to determine whether it would adhere well enough so that no portion of it would drip off in a timeframe of 10 seconds. The results of these experimental observations are presented in Table 1 along with further considerations regarding the parameters desired for this invention.

Row | Compound | Stability of solvent with storage [1] | Stability of vitamin D in vehicle [2] | Stability of solvent with storage ([1]; direct experimental observation)
1 | O [Water] | Stable | – | –
2 | Medium-chain triglyceride | Stable | – | –
3 | CC(=O)Oc1c(C)c(C)c2c(c1C)CCC(C)(CCC[C@H](C)CCC[C@H](C)CCCC(C)C)O2 (stereo partly shown) [Eitamin E acetate oil] | Stable | – | –
4 | Sesame oil | Oxidizes/ | – | –
5 | CCO [Ethanol] | – | Solvent | Evaporates
6 | Canola oil | Oxidizes/ | – | –
